The record followed here is US5428182A, “Bile acid derivatives, process for their preparation and use of these compounds as pharmaceuticals” (Hoechst Aktiengesellschaft, priority 1992, dated 1995).

Each structure is given as a SMILES string.

This assay concerns the target T1, Na^+ -dependent bile acid transport system (Oryctolagus cuniculus, UniProt Q28727).
T1 construct: Brush border membrane vesicles from the intestinal cells of the small intestine were prepared by the so-called Mg^2+ precipitation method; from tissue; host or cells: terminal ileum (terminal 7/10 of small intestine) of male New Zealand rabbits, brush border membrane vesicles
T1 sequence (Q28727 1-347): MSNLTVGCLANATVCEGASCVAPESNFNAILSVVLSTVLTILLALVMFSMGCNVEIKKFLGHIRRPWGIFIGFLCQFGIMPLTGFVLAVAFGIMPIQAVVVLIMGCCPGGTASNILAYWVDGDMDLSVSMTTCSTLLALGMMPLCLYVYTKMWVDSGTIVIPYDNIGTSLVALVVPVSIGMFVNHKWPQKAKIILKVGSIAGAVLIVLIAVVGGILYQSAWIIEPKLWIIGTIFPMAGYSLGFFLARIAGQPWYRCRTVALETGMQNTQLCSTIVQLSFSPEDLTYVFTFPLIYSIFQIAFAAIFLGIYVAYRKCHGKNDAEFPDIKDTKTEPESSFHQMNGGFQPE
Kind of assay: inhibition of Na+-dependent [3H]-taurocholate absorption in brush border membrane vesicles of rabbit ileum (membrane filtration technique). Format: biochemical. The settings on record: 50 μM taurocholate, customarily 1 minute, pH 7.4; for IC50Na (TCDC) / IC50Na (Substance): quotient of IC50Na of the standard TCDC and of the substance, Na+-dependent transport (difference Na-T-B minus K-T-B); for IC50 (TCDC) / IC50 (Substance): quotient of IC50 of the standard taurochenodeoxycholate (TCDC) and of the substance. The protocol:
The biological testing of the compounds according to the invention was carried out by determining the inhibition of [^3 H]-taurocholate absorption in brush border membrane vesicles of the rabbit ileum. The inhibition test was carried out as follows:
Brush border membrane vesicles from the intestinal cells of the small intestine were prepared by the so-called Mg^2+ precipitation method. Male New Zealand rabbits (2 to 2.5 kg body weight) were sacrificed by intravenous injection of 0.5 ml of an aqueous solution of 2.5 mg of tetracaine HCl, 100 T 61® and 25 mg of mebezonium iodide. The small intestine was removed and rinsed with ice-cold physiological saline solution. The terminal 7/10 of the small intestine (measured in the oral-rectal direction, i.e. the terminal ileum, which contains the active Na^+ -dependent bile acid transport system) were used for the preparation of the brush border membrane vesicles. The intestines were frozen under nitrogen at -80° C. in plastic bags. For the preparation of the membrane vesicles, the frozen intestines were thawed at 30° C. in a water bath. The mucosa was scraped off and suspended in 60 ml of ice-cold 12 mM tris/HCl buffer (pH 7.1)/300 mM mannitol, 5 mM EGTA/ 10 mg/l of phenylmethylsulfonyl fluoride/l mg/l of trypsin inhibitor from soybeans (32 U/mg)/0.5 mg/l of trypsin inhibitor from bovine lung (193 U/mg)/5 mg/l of bacitracin. After dilution to 300 ml with ice-cold distilled water, the suspension was homogenized using an Ultraturrax (18-rod, IKAWerk Staufen, FRG) for 3 minutes at 75% maximum power with ice-cooling. After addition of 3 ml of 1M MgCl2 solution (final concentration 10 mM), the homogenate was allowed to stand at 0° C. for exactly 1 minute. As a result of addition of Mg^2+, the cell membranes aggregate and precipitate with the exception of the brush border membranes. After centrifugation at 3000×g for 15 minutes (5000 rpm, SS-34 rotor), the precipitate is discarded and the supernatant which contains the brush border membranes is centrifuged at […] for 30 minutes (15,000 rpm, SS-34 rotor). The supernatant was discarded and the precipitate was rehomogenized in 60 ml of 12 mM tris/HCl buffer (pH 7.1)/60 mM mannitol/5 mM EGTA using a Potter Elvejhem homogenizer (Braun Melsungen, 900 rpm, 10 strokes). After addition of 0.1 ml of 1M MgCl2 solution and an incubation time of 15 minutes at 0° C., centrifugation was once more carried out at 3000×g for 15 minutes. The supernatant was then centrifuged again at 46,000×g (15,000 rpm, SS-34 rotor) for 30 minutes. The precipitate was taken up in 30 ml of 10 mM tris/hepes buffer (pH 7.4)/300 mM mannitol and homogeneously resuspended at 1000 rpm by 20 strokes in a Potter Elvejhem homogenizer. After centrifugation at 48,000×g (20,000 rpm, SS-34 rotor) for 30 minutes, the precipitate was taken up in 0.5 to 2 ml of tris/HEPES buffer (pH 7.4)/280mM mannitol (final concentration 20 mg/ml) and resuspended with the aid of a tuberculin syringe having a 27 gauge needle. The vesicles were either used immediately after preparation for transport investigations or stored in liquid nitrogen at -196° C. in 4 mg portions.
The absorption of substrates in the brush border membrane vesicles described above was determined by means of the so-called membrane filtration technique. 10 μl of the vesicle suspension (100 μg of protein) were pipetted as drops onto the wall of a polystyrene incubation tube (11×70 mm) which contained the incubation medium with the appropriate ligands (90 μl). The incubation medium contained 0.75 μl=0.75 μCi of [^3 H(G)]-taurocholate (specific activity: 2.1 Ci/mMol)/0.5 μl of 10 mM taurocholate/8.75 μl of sodium transport buffer (10 mM tris/HEPES (pH 7.4)/100 mM mannitol/100 mM NaCl) (Na-T-B) or 8.75 μl of potassium transport buffer (10 mM tris/hepes (pH 7.4)/100 mM mannitol/100 mM KCl) (K-T-B) and 80 μl of the inhibitor solution concerned, depending on the experiment, dissolved in Na-T buffer or K-T buffer. […]

For `C[C@H](CCC(=O)O)[C@H]1CC[C@H]2[C@@H]3[C@H](O)C[C@@H]4C[C@@H](OCCNC(=O)CCC(CCC(=O)NCCO[C@H]5CC[C@@]6(C)[C@@H](C5)C[C@@H](O)[C@@H]5[C@@H]6C[C@H](O)[C@]6(C)[C@@H]([C@H](C)CCC(=O)O)CC[C@@H]56)(CCC(=O)NCCO[C@H]5CC[C@@]6(C)[C@@H](C5)C[C@@H](O)[C@@H]5[C@@H]6C[C@H](O)[C@]6(C)[C@@H]([C@H](C)CCC(=O)O)CC[C@@H]56)[N+](=O)[O-])CC[C@]4(C)[C@H]3C[C@H](O)[C@]12C` [Example 7], the “IC50Na (TCDC) / IC50Na (Substance)” value was determined as 0.34 and the “IC50 (TCDC) / IC50 (Substance)” value is 0.29.

Take `C[C@H](CCC(=O)O)[C@H]1CC[C@H]2[C@@H]3[C@H](O)C[C@@H]4C[C@@H](OCCNC(=O)CCOCC(C)(COCCC(=O)NCCO[C@H]5CC[C@@]6(C)[C@@H](C5)C[C@@H](O)[C@@H]5[C@@H]6C[C@H](O)[C@]6(C)[C@@H]([C@H](C)CCC(=O)O)CC[C@@H]56)COCCC(=O)NCCO[C@H]5CC[C@@]6(C)[C@@H](C5)C[C@@H](O)[C@@H]5[C@@H]6C[C@H](O)[C@]6(C)[C@@H]([C@H](C)CCC(=O)O)CC[C@@H]56)CC[C@]4(C)[C@H]3C[C@H](O)[C@]12C` [Example 10]: the “IC50Na (TCDC) / IC50Na (Substance)” value amounted to 0.26 and the “IC50 (TCDC) / IC50 (Substance)” value stood at 0.24.

Consider `C[C@H](CCC(=O)O)[C@H]1CC[C@H]2[C@@H]3[C@H](O)C[C@@H]4C[C@@H](NC(=O)CCOCCCOCC(C)(COCCCOCCC(=O)N[C@H]5CC[C@@]6(C)[C@@H](C5)C[C@@H](O)[C@@H]5[C@@H]6C[C@H](O)[C@]6(C)[C@@H]([C@H](C)CCC(=O)O)CC[C@@H]56)COCCCOCCC(=O)N[C@H]5CC[C@@]6(C)[C@@H](C5)C[C@@H](O)[C@@H]5[C@@H]6C[C@H](O)[C@]6(C)[C@@H]([C@H](C)CCC(=O)O)CC[C@@H]56)CC[C@]4(C)[C@H]3C[C@H](O)[C@]12C` [Example 11], for which the “IC50Na (TCDC) / IC50Na (Substance)” value is on record as 0.36 and the “IC50 (TCDC) / IC50 (Substance)” value was determined as 0.29.

For `C[C@H](CCC(=O)O)[C@H]1CC[C@H]2[C@@H]3[C@H](O)C[C@@H]4C[C@@H](OCCCCCCNC(=O)[C@]5(C)C[C@](C)(C(=O)NCCCCCCO[C@H]6CC[C@@]7(C)[C@@H](C6)C[C@@H](O)[C@@H]6[C@@H]7C[C@H](O)[C@]7(C)[C@@H]([C@H](C)CCC(=O)O)CC[C@@H]67)C[C@](C)(C(=O)NCCCCCCO[C@H]6CC[C@@]7(C)[C@@H](C6)C[C@@H](O)[C@@H]6[C@@H]7C[C@H](O)[C@]7(C)[C@@H]([C@H](C)CCC(=O)O)CC[C@@H]67)C5)CC[C@]4(C)[C@H]3C[C@H](O)[C@]12C` [Example 16], the “IC50Na (TCDC) / IC50Na (Substance)” value worked out at 0.31 and the “IC50 (TCDC) / IC50 (Substance)” value turned out to be 0.37.

In the case of `C[C@H](CCC(=O)O)[C@H]1CC[C@H]2[C@@H]3[C@H](O)C[C@@H]4C[C@H](CCNC(=O)c5cc(C(=O)NCC[C@@H]6CC[C@@]7(C)[C@@H](C6)C[C@@H](O)[C@@H]6[C@@H]7C[C@H](O)[C@]7(C)[C@@H]([C@H](C)CCC(=O)O)CC[C@@H]67)cc(C(=O)NCC[C@@H]6CC[C@@]7(C)[C@@H](C6)C[C@@H](O)[C@@H]6[C@@H]7C[C@H](O)[C@]7(C)[C@@H]([C@H](C)CCC(=O)O)CC[C@@H]67)c5)CC[C@]4(C)[C@H]3C[C@H](O)[C@]12C` [Example 18], the “IC50Na (TCDC) / IC50Na (Substance)” value is 0.76 and the “IC50 (TCDC) / IC50 (Substance)” value turned out to be 0.85.

As for `C[C@H](CCC(=O)O)[C@H]1CC[C@H]2[C@@H]3[C@H](O)C[C@@H]4C[C@@H](OCCCCCNC(=O)c5cc(C(=O)NCCCCCO[C@H]6CC[C@@]7(C)[C@@H](C6)C[C@@H](O)[C@@H]6[C@@H]7C[C@H](O)[C@]7(C)[C@@H]([C@H](C)CCC(=O)O)CC[C@@H]67)cc(C(=O)NCCCCCO[C@H]6CC[C@@]7(C)[C@@H](C6)C[C@@H](O)[C@@H]6[C@@H]7C[C@H](O)[C@]7(C)[C@@H]([C@H](C)CCC(=O)O)CC[C@@H]67)c5)CC[C@]4(C)[C@H]3C[C@H](O)[C@]12C` [Example 20], the “IC50Na (TCDC) / IC50Na (Substance)” value was determined as 0.86 and the “IC50 (TCDC) / IC50 (Substance)” value is reported as 0.43.

`C[C@H](CCC(=O)O)[C@H]1CC[C@H]2[C@@H]3[C@H](O)C[C@@H]4C[C@@H](OCCCCCCNC(=O)c5cc(C(=O)NCCCCCCO[C@H]6CC[C@@]7(C)[C@@H](C6)C[C@@H](O)[C@@H]6[C@@H]7C[C@H](O)[C@]7(C)[C@@H]([C@H](C)CCC(=O)O)CC[C@@H]67)cc(C(=O)NCCCCCCO[C@H]6CC[C@@]7(C)[C@@H](C6)C[C@@H](O)[C@@H]6[C@@H]7C[C@H](O)[C@]7(C)[C@@H]([C@H](C)CCC(=O)O)CC[C@@H]67)c5)CC[C@]4(C)[C@H]3C[C@H](O)[C@]12C` [Example 21]: the “IC50Na (TCDC) / IC50Na (Substance)” value is listed as 0.59 and the “IC50 (TCDC) / IC50 (Substance)” value is on record as 0.29.

For the molecule `C[C@H](CCC(=O)O)[C@H]1CC[C@H]2[C@@H]3[C@H](O)C[C@@H]4C[C@@H](OCCCCCNC(=O)[C@]5(C)C[C@](C)(C(=O)NCCCCCO[C@H]6CC[C@@]7(C)[C@@H](C6)C[C@@H](O)[C@@H]6[C@@H]7C[C@H](O)[C@]7(C)[C@@H]([C@H](C)CCC(=O)O)CC[C@@H]67)C[C@](C)(C(=O)NCCCCCO[C@H]6CC[C@@]7(C)[C@@H](C6)C[C@@H](O)[C@@H]6[C@@H]7C[C@H](O)[C@]7(C)[C@@H]([C@H](C)CCC(=O)O)CC[C@@H]67)C5)CC[C@]4(C)[C@H]3C[C@H](O)[C@]12C` [Example 31], the “IC50Na (TCDC) / IC50Na (Substance)” value is recorded as 0.93 and the “IC50 (TCDC) / IC50 (Substance)” value came out at 1.26.

Turning to `C[C@H](CCC(=O)O)[C@H]1CC[C@H]2[C@@H]3[C@H](O)C[C@@H]4C[C@@H](NC(=O)[C@]5(C)C[C@](C)(C(=O)N[C@H]6CC[C@@]7(C)[C@@H](C6)C[C@@H](O)[C@@H]6[C@@H]7C[C@H](O)[C@]7(C)[C@@H]([C@H](C)CCC(=O)O)CC[C@@H]67)C[C@](C)(C(=O)N[C@H]6CC[C@@]7(C)[C@@H](C6)C[C@@H](O)[C@@H]6[C@@H]7C[C@H](O)[C@]7(C)[C@@H]([C@H](C)CCC(=O)O)CC[C@@H]67)C5)CC[C@]4(C)[C@H]3C[C@H](O)[C@]12C` [Example 33], the “IC50Na (TCDC) / IC50Na (Substance)” value is reported as 1.04 and the “IC50 (TCDC) / IC50 (Substance)” value was 0.77.

Regarding `CC(CCC(=O)O)C1CCC2C3C(O)CC4CC(OCCNC(=O)C5C(C(=O)NCCOC6CCC7(C)C(C6)CC(O)C6C7CC(O)C7(C)C(C(C)CCC(=O)O)CCC67)C(c6ccccc6)C5C(=O)NCCOC5CCC6(C)C(C5)CC(O)C5C6CC(O)C6(C)C(C(C)CCC(=O)O)CCC56)CCC4(C)C3CC(O)C12C` (centres unmarked) [Example 45], the “IC50Na (TCDC) / IC50Na (Substance)” value is listed as 0.23 and the “IC50 (TCDC) / IC50 (Substance)” value was 0.32.
